Assay results: ChEMBL document CHEMBL6087456 (J Med Chem, 2025)
Calls of active or inactive are those of the source. The calls are words filed in the database; no cut-off is given here.

Legend:
Albumin = Albumin (Homo sapiens, UniProt P02768); experiment: Protein binding to albumin (unknown origin) in ALBUMAX medium; type: ADME; conditions: read-out: PB (converted)
Cytochrome P450 3A4 = Cytochrome P450 3A4 (Homo sapiens, UniProt P08684); experiment: Inhibition of CYP3A4 in human liver microsomes; type: ADME, Microsome
Cytochrome P450 3A4, sequence (P08684 whole entry): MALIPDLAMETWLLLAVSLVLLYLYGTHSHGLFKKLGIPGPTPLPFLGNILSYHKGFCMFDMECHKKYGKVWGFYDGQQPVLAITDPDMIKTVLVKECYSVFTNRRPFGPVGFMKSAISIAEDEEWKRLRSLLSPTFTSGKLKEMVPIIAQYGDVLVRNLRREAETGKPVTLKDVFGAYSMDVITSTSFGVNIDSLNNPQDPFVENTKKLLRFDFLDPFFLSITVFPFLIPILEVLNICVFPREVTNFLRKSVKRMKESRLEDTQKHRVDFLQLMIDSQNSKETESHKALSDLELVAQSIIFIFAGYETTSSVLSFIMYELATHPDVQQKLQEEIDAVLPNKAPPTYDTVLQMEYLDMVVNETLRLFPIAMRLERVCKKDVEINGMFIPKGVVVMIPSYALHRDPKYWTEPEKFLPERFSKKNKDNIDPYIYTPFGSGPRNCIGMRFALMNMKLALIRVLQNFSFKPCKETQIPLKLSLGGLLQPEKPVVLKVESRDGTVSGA

[1] = Cytotoxicity against human Jurkat cells by Cell Titer Glo assay; type: toxicity, cell-based
Plasmodium falciparum [2] = experiment: Antimalarial activity against erythrocyte asexual stage Plasmodium falciparum 3D7 0087/N9 infected in humanized SCID mouse model assessed as elimination of trophozoites at second life cycle at 1 to 30 mg/kg administered once daily measured for 48 to 96 hrs; type: functional, organism-based; conditions: dose 1-30 mg/kg, time lower […], time upper […]
Plasmodium falciparum [3] = experiment: Antimalarial activity against erythrocyte asexual stage Plasmodium falciparum 3D7 0087/N9 infected in humanized SCID mouse model at 1 to 30 mg/kg administered once daily for 6 days measured on day 9; type: functional, organism-based; conditions: dose 1-30 mg/kg, time 6.0 day
[4] = Cytotoxicity against human HepG2 cells by Cell Titer Glo assay; type: toxicity, cell-based
Cytochrome P450 2B6 = target: T1, Cytochrome P450 2B6 (Homo sapiens, UniProt P20813); experiment: Time-dependent inhibition of CYP2B6 in human liver microsomes; type: ADME, Microsome
T1 sequence (P20813 whole entry): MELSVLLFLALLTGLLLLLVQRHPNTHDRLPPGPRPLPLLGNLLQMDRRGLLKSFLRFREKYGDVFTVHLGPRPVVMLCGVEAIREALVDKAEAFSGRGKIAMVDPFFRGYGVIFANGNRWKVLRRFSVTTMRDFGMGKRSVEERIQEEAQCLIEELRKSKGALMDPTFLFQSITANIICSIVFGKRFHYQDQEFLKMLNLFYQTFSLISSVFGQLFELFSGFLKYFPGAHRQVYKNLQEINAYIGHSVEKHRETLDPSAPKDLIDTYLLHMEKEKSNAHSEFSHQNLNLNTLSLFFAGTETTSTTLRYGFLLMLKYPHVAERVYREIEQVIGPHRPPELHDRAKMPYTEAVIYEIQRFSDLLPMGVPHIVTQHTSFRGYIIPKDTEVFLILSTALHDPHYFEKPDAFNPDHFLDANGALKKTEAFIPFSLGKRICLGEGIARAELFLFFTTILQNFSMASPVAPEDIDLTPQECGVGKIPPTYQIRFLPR

Plasmodium falciparum [5] = experiment: Antiparasitic activity against Plasmodium falciparum 3D7 assessed as parasitic reduction ratio at 10 times EC50 pretreated for 120 hrs followed by compound removal and replacement of media without compound measured after 28 days by cell killing assay; type: functional
[6] = Plasma protein binding in human measured for 6 hrs by rapid equilibrium dialysis; type: ADME, cell-free
Cytochrome P450 1A2 = target: T2, Cytochrome P450 1A2 (Homo sapiens, UniProt P05177); experiment: Time-dependent inhibition of CYP1A2 in human liver microsomes; type: ADME, Microsome
T2 sequence (P05177 whole entry): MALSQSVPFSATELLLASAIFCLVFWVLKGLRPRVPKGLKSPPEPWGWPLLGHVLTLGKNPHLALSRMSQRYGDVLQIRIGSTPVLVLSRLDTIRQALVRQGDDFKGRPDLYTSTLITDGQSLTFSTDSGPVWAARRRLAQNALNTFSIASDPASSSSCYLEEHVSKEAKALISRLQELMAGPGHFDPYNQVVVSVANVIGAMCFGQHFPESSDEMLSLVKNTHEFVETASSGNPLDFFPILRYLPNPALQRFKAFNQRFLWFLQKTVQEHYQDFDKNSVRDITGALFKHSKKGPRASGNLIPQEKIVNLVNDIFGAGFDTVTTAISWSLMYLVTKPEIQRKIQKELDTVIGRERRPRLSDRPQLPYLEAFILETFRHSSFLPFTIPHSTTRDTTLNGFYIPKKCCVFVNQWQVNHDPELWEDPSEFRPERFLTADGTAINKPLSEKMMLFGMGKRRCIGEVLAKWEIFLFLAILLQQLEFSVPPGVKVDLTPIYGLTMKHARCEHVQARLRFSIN

Plasmodium falciparum [7] = experiment: Prevention of pyknosis of rings in humanized SCID mouse model infected with erythrocyte asexual stage Plasmodium falciparum 3D7 0087/N9 at 1 to 30 mg/kg administered once daily for 6 days measured after 96 to […] post-dose; type: functional, organism-based; conditions: dose 1-30 mg/kg, time 6.0 day
[8] = Oral absorption in overnight-fasted male Sprague-Dawley rat at 3 mg/kg measured upto 72 hrs by LCMS analysis; type: ADME, organism-based; conditions: in vivo
Cytochrome P450 2C8 = target: T3, Cytochrome P450 2C8 (Homo sapiens, UniProt P10632); experiment: Time-dependent inhibition of CYP2C8 in human liver microsomes; type: ADME, Microsome
T3 sequence (P10632 whole entry): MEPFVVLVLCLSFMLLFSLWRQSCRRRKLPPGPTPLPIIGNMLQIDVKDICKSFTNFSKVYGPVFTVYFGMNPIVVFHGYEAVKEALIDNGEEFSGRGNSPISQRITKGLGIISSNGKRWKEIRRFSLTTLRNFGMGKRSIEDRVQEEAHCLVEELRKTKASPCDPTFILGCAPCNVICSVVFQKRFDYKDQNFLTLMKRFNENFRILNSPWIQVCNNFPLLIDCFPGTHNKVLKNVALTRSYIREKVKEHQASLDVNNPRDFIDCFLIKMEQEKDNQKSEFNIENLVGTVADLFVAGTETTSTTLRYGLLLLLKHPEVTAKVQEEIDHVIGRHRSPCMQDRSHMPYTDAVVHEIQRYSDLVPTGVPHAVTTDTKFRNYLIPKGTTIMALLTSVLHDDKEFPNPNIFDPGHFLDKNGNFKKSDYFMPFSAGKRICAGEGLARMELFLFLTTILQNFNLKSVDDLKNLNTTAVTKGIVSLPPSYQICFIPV

Plasmodium falciparum [9] = experiment: Antiparasitic activity against Plasmodium falciparum 3D7 assessed as lag time before killing at 10 times EC50 pretreated for 120 hrs followed by compound removal and replacement of media without compound measured after 28 days by cell killing assay; type: functional
Plasmodium falciparum [10] = experiment: Prevention of re-infection of new erythrocytes in humanized SCID mouse model infected with erythrocyte asexual stage Plasmodium falciparum 3D7 0087/N9 at 1 to 30 mg/kg administered once daily for 6 days; type: functional, organism-based; conditions: dose 1-30 mg/kg, time 6.0 day
Cytochrome P450 2C19 = Cytochrome P450 2C19 (Homo sapiens, UniProt P33261); experiment: Time-dependent inhibition of CYP2C19 in human liver microsomes; type: ADME, Microsome
Cytochrome P450 2C19, sequence (P33261 whole entry): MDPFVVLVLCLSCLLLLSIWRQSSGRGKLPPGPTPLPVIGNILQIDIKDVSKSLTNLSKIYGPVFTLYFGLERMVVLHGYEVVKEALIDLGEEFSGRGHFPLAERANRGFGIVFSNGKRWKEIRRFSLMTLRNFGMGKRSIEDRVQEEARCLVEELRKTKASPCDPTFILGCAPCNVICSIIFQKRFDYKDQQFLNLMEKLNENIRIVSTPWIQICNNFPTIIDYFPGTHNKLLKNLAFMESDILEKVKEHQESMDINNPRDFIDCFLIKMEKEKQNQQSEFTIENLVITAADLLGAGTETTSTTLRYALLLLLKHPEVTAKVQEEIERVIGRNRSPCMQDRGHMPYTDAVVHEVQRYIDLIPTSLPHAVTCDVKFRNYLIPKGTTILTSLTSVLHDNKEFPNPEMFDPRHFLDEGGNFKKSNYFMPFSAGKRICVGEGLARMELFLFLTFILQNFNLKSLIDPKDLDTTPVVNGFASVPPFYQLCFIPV

[11] = target: Voltage-gated inwardly rectifying potassium channel KCNH2 (Homo sapiens, UniProt Q12809); experiment: Inhibition of hERG expressed in CHO cells by whole-cell patch-clamp assay; type: toxicity, cell-based
Voltage-gated inwardly rectifying potassium channel KCNH2, sequence (Q12809 whole entry): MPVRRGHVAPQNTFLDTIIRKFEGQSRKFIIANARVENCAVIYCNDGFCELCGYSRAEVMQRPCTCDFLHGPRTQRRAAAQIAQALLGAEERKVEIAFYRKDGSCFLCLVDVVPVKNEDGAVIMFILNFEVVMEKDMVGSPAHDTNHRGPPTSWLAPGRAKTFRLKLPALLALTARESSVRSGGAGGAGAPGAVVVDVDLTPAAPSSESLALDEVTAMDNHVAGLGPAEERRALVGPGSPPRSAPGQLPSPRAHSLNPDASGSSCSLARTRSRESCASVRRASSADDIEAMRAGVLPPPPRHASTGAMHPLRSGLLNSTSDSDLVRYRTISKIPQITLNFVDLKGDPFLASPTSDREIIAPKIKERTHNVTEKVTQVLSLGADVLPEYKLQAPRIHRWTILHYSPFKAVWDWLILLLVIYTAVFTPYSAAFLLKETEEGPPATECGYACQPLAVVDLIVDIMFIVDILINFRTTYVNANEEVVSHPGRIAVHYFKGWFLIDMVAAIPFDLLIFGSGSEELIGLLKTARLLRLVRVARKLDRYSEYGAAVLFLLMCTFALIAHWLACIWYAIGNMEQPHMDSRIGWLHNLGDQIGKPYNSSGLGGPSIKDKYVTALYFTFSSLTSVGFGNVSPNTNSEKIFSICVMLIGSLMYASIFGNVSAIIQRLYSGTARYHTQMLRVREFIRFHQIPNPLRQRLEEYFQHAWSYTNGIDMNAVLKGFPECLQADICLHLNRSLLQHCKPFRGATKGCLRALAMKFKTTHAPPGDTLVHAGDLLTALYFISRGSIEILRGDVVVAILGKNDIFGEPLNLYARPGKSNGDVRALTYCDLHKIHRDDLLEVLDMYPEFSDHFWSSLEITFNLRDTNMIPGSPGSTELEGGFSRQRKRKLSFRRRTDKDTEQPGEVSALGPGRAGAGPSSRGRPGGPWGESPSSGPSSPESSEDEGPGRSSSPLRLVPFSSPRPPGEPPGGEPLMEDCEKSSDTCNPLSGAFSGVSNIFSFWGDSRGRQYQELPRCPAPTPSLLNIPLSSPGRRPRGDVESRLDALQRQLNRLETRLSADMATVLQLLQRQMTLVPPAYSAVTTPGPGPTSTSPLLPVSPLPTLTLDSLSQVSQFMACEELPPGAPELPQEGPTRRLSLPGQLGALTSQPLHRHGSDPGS

[12] = target: Prostaglandin G/H synthase 1 (Homo sapiens) (UniProt P23219); experiment: Inhibition of COX1 (unknown origin) at 10 uM relative to control
Prostaglandin G/H synthase 1 (Homo sapiens), sequence (P23219 whole entry, the tested form may be a part): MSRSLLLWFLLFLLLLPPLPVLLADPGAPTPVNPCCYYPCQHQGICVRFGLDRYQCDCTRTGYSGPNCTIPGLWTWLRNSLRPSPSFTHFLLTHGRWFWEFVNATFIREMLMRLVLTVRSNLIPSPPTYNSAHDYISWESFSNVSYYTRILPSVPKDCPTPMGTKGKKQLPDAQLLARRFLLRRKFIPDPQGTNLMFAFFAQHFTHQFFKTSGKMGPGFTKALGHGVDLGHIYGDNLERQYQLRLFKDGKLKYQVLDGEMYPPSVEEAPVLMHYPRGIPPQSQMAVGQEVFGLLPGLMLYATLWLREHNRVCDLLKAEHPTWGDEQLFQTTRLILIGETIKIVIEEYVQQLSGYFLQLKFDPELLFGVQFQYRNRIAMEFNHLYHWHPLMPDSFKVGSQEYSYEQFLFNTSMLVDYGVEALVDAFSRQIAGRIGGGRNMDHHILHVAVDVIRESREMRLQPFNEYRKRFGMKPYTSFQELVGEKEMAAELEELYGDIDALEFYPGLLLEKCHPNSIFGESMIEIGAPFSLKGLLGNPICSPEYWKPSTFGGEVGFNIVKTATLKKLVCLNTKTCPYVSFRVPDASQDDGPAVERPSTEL

[13] = target: Dihydroorotate dehydrogenase (quinone), mitochondrial (Homo sapiens, UniProt Q02127); experiment: Inhibition of C-terminal His6-tagged recombinant human DHODH (29 to 395 residues) N-terminally truncated soluble domain extracted from Escherichia coli phage resistant BL21-DE3 using CoQD/DHA/DCIP as substrates
Dihydroorotate dehydrogenase (quinone), mitochondrial, sequence (Q02127 whole entry, the tested form may be a part): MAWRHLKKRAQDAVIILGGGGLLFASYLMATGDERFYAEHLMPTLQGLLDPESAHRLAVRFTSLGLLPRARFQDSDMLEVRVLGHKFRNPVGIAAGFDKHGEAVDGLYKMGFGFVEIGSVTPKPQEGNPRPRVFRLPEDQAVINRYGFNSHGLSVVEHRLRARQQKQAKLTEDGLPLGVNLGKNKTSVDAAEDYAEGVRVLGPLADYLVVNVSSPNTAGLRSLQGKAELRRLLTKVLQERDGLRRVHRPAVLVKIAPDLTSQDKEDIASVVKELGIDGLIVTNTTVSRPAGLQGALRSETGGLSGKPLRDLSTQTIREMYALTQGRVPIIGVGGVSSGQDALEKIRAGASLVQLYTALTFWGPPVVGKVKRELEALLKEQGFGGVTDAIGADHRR

Albumin, sequence (P02768 whole entry): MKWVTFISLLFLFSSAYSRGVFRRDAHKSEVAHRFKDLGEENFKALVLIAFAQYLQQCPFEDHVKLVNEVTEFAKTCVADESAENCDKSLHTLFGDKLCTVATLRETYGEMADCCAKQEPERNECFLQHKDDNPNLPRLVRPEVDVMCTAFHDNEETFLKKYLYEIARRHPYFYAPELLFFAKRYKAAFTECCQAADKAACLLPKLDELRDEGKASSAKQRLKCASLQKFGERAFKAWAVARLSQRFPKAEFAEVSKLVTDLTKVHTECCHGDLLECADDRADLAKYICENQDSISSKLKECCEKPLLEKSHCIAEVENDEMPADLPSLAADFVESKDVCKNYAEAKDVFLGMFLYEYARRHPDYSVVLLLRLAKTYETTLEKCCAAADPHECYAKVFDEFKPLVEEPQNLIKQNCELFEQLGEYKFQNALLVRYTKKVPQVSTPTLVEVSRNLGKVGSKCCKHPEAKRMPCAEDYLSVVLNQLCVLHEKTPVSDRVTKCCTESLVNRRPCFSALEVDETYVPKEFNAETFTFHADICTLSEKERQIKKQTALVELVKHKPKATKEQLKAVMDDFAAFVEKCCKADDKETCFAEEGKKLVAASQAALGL

Work on Cn1nc2c(=O)n(C3CC3)cnc2c1[C@](O)(c1cnc(C(F)(F)F)c(Cl)c1)C(F)(F)F yielded a fraction unbound (Albumin) of 0.514, an IC50 (Cytochrome P450 3A4) of over 20 µM and a CC50 [1] of over 20 µM. The Activity (Plasmodium falciparum [2]) was “Active”, the Activity (Plasmodium falciparum [3]) was “Active” and the CC50 [4] was over 20 µM. For the same compound, the TDI (Cytochrome P450 2B6) was “Not_active”, the “log(activity)” value (Plasmodium falciparum [5]) was 2.9 and the PPB [6] was 98.9%. The TDI (Cytochrome P450 1A2) was “Not_active”, the Activity (Plasmodium falciparum [7]) was “inactive” and the Fa at 72 h [8] was 100%. The TDI (Cytochrome P450 2C8) was “Not_active”, the Time (Plasmodium falciparum [9]) was about 26 h and the Activity (Plasmodium falciparum [10]) was “inactive”. For the same compound, the TDI (Cytochrome P450 2C19) was “Not_active”, the EC50 [11] was about 50 µM and the inhibition [12] was 50%. The IC50 [13] was over 30 µM.
